From patent US8895585B2, “Nicotinamide derivative or salt thereof” (FUJIFILM Corporation, priority 2010, dated 2014) come the findings set out here.

Read-outs that look alike come from different tables or passages of the source. A value given as a limit tells only on which side of the number the result lay.

Assay [1] concerns the target T1, glutathione S-transferase (GST)-fused full-length human Syk protein (Homo sapiens, UniProt P43405).
T1 construct: (GST)-fused full-length human Syk protein; GST (glutathione S-transferase); purchased Carna Biosciences
Put plainly: Syk enzyme assay. The class given is biochemical. The essentials:
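IC50 values come from a time-resolved FRET readout (615 and 665 nm) of substrate phosphorylation, measured after an EDTA stop and 1 h antibody binding. The kinase reaction ran 40 min at room temperature with 27 μM ATP and 0.4 μM biotin-peptide, following a 15 min compound preincubation with baculovirus-made GST-full-length human Syk.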

The test system of assay [2] is THP-1 cells. Put plainly: TNFα generation assay. In kind it is cell-based, human. Conditions: Homo sapiens. An outline of the steps: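 THP-1 cells differentiated to macrophage-like cells with 10 ng/ml IFN-γ for 2 days, preincubated with compound 30 min at room temperature, then cultured 7 h on plates coated with human IgG (10 μg/ml). Secreted TNFα measured by ELISA or AlphaLISA.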

The mark [3] stands for this setting: Syk enzyme assay, Test Example 1, read-out: IC50 of Syk-inhibitory activity.
[4] abbreviates: THP-1, THP-1 cells, Table 22, read-out: IC50 in TNFα generation assay.

`CCn1ncc2c(Nc3nc(N[C@H](CC4CC4)[C@H](C)N)c(F)cc3C(N)=O)cccc21` [Example 006-508, 6-(((2R,3S)-3-amino-1-cyclopropylbutan-2-yl)amino)-2-((1-ethyl-1H-indazol-4-yl)amino)-5-fluoronicotinamide]: the IC50 was < 10 nM in assay [1] (setting [3]) and 65 to 130 nM in assay [2] (setting [4]).

With `NC(=O)c1cc(F)c(NC2CCCCC2N)nc1Nc1ccc(-n2cccn2)nc1` (centres unmarked) [Example 002-160], the IC50 is 10 to 50 nM in assay [1] (setting [3]) and 130 to 200 nM in assay [2] (setting [4]).

With `COc1cc(Nc2nc(NC3CCCCC3N)c(F)cc2C(N)=O)cc(OC)c1OC` (centres unmarked) [Example 002-007], the IC50 in assay [1] (setting [3]) fell in the range of 10 to 50 nM; in assay [2] (setting [4]), 65 to 130 nM.

For the molecule `NC(=O)c1cc(F)c(N[C@@H]2CCCC[C@@H]2N)nc1Nc1cncc(-c2ccc(N)cc2)c1` (relative stereo) [Example 004-218, 6-(cis-2-aminocyclohexylamino)-2-((5-(4-aminophenyl)pyridin-3-yl)amino)-5-fluoronicotinamide], the values for the IC50 in assay [1] (setting [3]) and in assay [2] (setting [4]) were < 10 nM and 65 to 130 nM, respectively.

Take `NC(=O)Nc1cccc2cc(Nc3nc(N[C@@H]4CCCC[C@@H]4N)c(F)cc3C(N)=O)cnc12` (relative stereo) [Example 004-064]: the IC50 in assay [1] (setting [3]) is 100 to 1000 nM; in assay [2] (setting [4]), < 65 nM.

`CC[C@@H](Nc1nc(Nc2ccc3cccnc3c2)c(C(N)=O)cc1F)[C@H](C)N` [Example 006-261, 6-(((2S,3R)-2-aminopentan-3-yl)amino)-5-fluoro-2-((quinolin-7-yl)amino)nicotinamide]: the IC50 in assay [1] (setting [3]) is < 10 nM; in assay [2] (setting [4]) it was < 65 nM.

Turning to `NC(=O)c1cc(F)c(NCC2(N)CC2)nc1Nc1ccc2ncccc2c1` [Example 014-014, 6-((1-aminocyclopropylmethyl)amino)-5-fluoro-2-((quinolin-6-yl)amino)nicotinamide], the IC50 was < 10 nM in assay [1] (setting [3]) and 130 to 200 nM in assay [2] (setting [4]).

Regarding `COCCOc1ccc2cc(Nc3nc(N[C@@H]4CCCC[C@@H]4N)c(F)cc3C(N)=O)cnc2c1` (relative stereo) [Example 004-127, 6-(cis-2-aminocyclohexylamino)-5-fluoro-2-((7-(2-methoxyethoxy)quinolin-3-yl)amino)-nicotinamide], the results for the IC50 in assay [1] (setting [3]) and in assay [2] (setting [4]) were < 10 nM and 130 to 200 nM, respectively.

As for `COCCOc1ncc(Nc2nc(N[C@@H]3CCCC[C@@H]3N)c(F)cc2C(N)=O)cc1-n1nccn1` [Example 006-517, 6-(((1R,2S)-2-aminocyclohexyl)amino)-5-fluoro-2-((6-(2-methoxyethoxy)-5-(2H-1,2,3-triazol-2-yl)pyridin-3-yl)amino)nicotinamide], the IC50 was < 10 nM in assay [1] (setting [3]) and 65 to 130 nM in assay [2] (setting [4]).

Turning to `CCCC[C@@H](Nc1nc(Nc2ccc3c(cnn3CCOC)c2)c(C(N)=O)cc1F)[C@H](C)N` [Example 006-389, 6-(((2S,3R)-2-aminoheptane-3-yl)amino)-5-fluoro-2-((1-(2-methoxyethyl)-1H-indazol-5-yl)amino)nicotinamide], the IC50 was < 10 nM in assay [1] (setting [3]) and 65 to 130 nM in assay [2] (setting [4]).

Consider `C[C@H](N)[C@@H](C)Nc1nc(Nc2cncc(C3CC3)c2)c(C(N)=O)cc1F` (racemic) [Example 006-193, 6-(((2R,3S)-3-aminobutan-2-yl)amino)-2-((5-cyclopropylpyridin-3-yl)amino)-5-fluoronicotinamide 6-(((2S,3R)-3-aminobutan-2-yl)amino)-2-((5-cyclopropylpyridin-3-yl)amino)-5-fluoronicotinamide], for which the IC50 is < 10 nM in assay [1] (setting [3]) and < 65 nM in assay [2] (setting [4]).

Consider `C[C@H](CN)Nc1nc(Nc2ccc3c(cnn3C)c2)c(C(N)=O)cc1F` [Example 006-102, (R)-6-((1-aminopropan-2-yl)amino)-5-fluoro-2-((1-methyl-1H-indazol-5-yl)amino)nicotinamide], for which the figures for the IC50 in assay [1] (setting [3]) and in assay [2] (setting [4]) were 10 to 50 nM and 65 to 130 nM, respectively.

Consider `CC[C@@H](Nc1nc(Nc2cnc3cc(OCCOC)ccc3c2)c(C(N)=O)cc1F)[C@H](C)N` [Example 006-259, 6-(((2S,3R)-2-aminopentan-3-yl)amino)-5-fluoro-2-((7-(2-methoxyethoxy)quinolin-3-yl)amino)nicotinamide], for which the IC50 in assay [1] (setting [3]) is < 10 nM; in assay [2] (setting [4]), < 65 nM.

`CC[C@@H](Nc1nc(Nc2ccc3c(c2)c(C(C)C)nn3C)c(C(N)=O)cc1F)[C@H](C)N` [Example 006-543, 6-(((2S,3R)-2-aminopentan-3-yl)amino)-5-fluoro-2-((3-isopropyl-1-methyl-1H-indazol-5-yl)amino)nicotinamide]: the IC50 in assay [1] (setting [3]) is < 10 nM; in assay [2] (setting [4]) it was 65 to 130 nM.

Turning to `NC(=O)c1cc(F)c(N[C@@H](C(N)=O)c2ccccc2)nc1Nc1ccc2ncccc2c1` [Example 12-8, 6-(((1R)-2-amino-2-oxo-1-phenylethyl)amino)-5-fluoro-2-(quinolin-6-ylamino)nicotinamide], the IC50 in assay [1] (read-out: Syk-inhibitory activity (IC50)) was ≤ 1000 nM; in assay [2] (THP-1, 7 h, IFN-γ-differentiated THP-1 cells on human IgG-coated plate, cultured 7 hours, read-out: TNFα generation inhibitory activity (IC50)), ≤ 200 nM.

Regarding `Cc1cc(Nc2nc(N[C@@H]3CCCC[C@@H]3N)c(F)cc2C(N)=O)cnc1-n1ccnn1` [Example 006-501, 6-(((1R,2S)-2-aminocyclohexyl)amino)-5-fluoro-2-((5-methyl-6-(1H-1,2,3-triazol-1-yl)pyridin-3-yl)amino)nicotinamide], the IC50 was 10 to 50 nM in assay [1] (setting [3]) and 130 to 200 nM in assay [2] (setting [4]).

Take `NC(=O)c1cc(F)c(N[C@@H]2CCCC[C@@H]2N)nc1Nc1cncc(N2CCOCC2)c1` (relative stereo) [Example 004-051]: the results for the IC50 in assay [1] (setting [3]) and in assay [2] (setting [4]) were < 10 nM and 130 to 200 nM, respectively.

On to `COc1ccc2cc(Nc3nc(N[C@H](C)[C@H](C)N)c(F)cc3C(N)=O)cnc2c1` (racemic) [Example 006-174, 6-(((2R,3S)-3-aminobutan-2-yl)amino)-5-fluoro-2-((7-methoxyquinolin-3-yl)amino)nicotinamide 6-(((2S,3R)-3-aminobutan-2-yl)amino)-5-fluoro-2-((7-methoxyquinolin-3-yl)amino)nicotinamide], for which the IC50 in assay [1] (setting [3]) is < 10 nM; in assay [2] (setting [4]) it was < 65 nM.

Turning to `CC[C@@H](Nc1nc(Nc2cnc3ccc(OC)cc3c2)c(C(N)=O)cc1F)[C@H](C)N` [Example 006-264, 6-(((2S,3R)-2-aminopentan-3-yl)amino)-5-fluoro-2-((6-methoxyquinolin-3-yl)amino)nicotinamide], the results for the IC50 in assay [1] (setting [3]) and in assay [2] (setting [4]) were < 10 nM and < 65 nM, respectively.

Turning to `NC(=O)c1cc(F)c(N[C@@H]2CCCC[C@@H]2N)nc1Nc1cncc(-c2ccncc2)c1` [Example 004-104], the values for the IC50 in assay [1] (setting [3]) and in assay [2] (setting [4]) were 10 to 50 nM and 130 to 200 nM, respectively.

On to `CC[C@@H](Nc1nc(Nc2cnc3cc(OC)ccc3c2)c(C(N)=O)cc1F)[C@H](C)N` [Example 006-190, 6-(((2S,3R)-2-aminopentan-3-yl)amino)-5-fluoro-2-((7-methoxyquinolin-3-yl)amino)nicotinamide], for which the IC50 is < 10 nM in assay [1] (setting [3]) and < 65 nM in assay [2] (setting [4]).

With `NC(=O)c1cc(F)c(N[C@@H]2CCCC[C@@H]2N)nc1Nc1ccc2nc(OCCN3CCOC3=O)ccc2c1` (relative stereo) [Example 004-201, 6-(cis-2-aminocyclohexylamino)-5-fluoro-2-((2-(2-(2-oxooxazolidin-3-yl)ethoxy)quinolin-6-yl)amino)nicotinamide], the IC50 in assay [1] (setting [3]) was < 10 nM; in assay [2] (setting [4]) it was 130 to 200 nM.
